Source: patent US12428406B2 (PMV Pharmaceuticals, Inc., priority 2019, dated 2025)

molecular target: T1, p53 Y220C (Homo sapiens, UniProt P04637, Y220C); assay: In vitro DNA binding activity assay (HTRF / TR-FRET): stabilization of p53 Y220C and increase of its DNA binding activity; format: biochemical; conditions: recombinant His-tagged p53 Y220C DNA binding domain (aa 94-312), biotin-labeled consensus DNA, incubated at 27° C. or 29° C. for 60 min
T1 construct: The recombinant protein was a truncation mutant containing only amino acids 94-312 of p53; made in house; host or cells: E. coli
T1 sequence (P04637 94-312, change not shown): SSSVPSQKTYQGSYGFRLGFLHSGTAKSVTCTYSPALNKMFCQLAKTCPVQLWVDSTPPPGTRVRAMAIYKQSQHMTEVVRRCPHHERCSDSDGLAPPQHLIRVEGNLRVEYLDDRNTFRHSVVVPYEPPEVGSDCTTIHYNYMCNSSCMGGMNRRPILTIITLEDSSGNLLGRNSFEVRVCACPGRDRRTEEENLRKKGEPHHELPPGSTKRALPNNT
Summary of the method: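 Stabilization of the mutant is inferred from increased binding of His-tagged p53 Y220C to a biotin-labeled consensus DNA, detected by HTRF with europium-streptavidin and APC-anti-His antibody. The concentration giving a 50% rise over compound-free binding is reported as SC150.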

SC150 (concentration of the compound required to increase the DNA binding activity by 50%), + (+ = 0 μM ≤ SC150 < 0.05 μM):
COc1cc(S(N)(=O)=O)ccc1NCC#Cc1cc2c(N[C@H]3CC[C@H](N4CCC(OC)CC4)CC3)cccc2n1CC(F)(F)F [Compound 354A, 3-methoxy-4-{[3-(4-{[(1R,4R)-4-(4-methoxypiperidin-1-yl)cyclohexyl]amino}-1-(2,2,2-trifluoroethyl)-1H-indol-2-yl)prop-2-yn-1-yl]amino}benzene-1-sulfonamide]
CNC(=O)c1ccc(NCC#Cc2cc3c(N[C@H]4CC[C@H](N5CCCC(OC)C5)CC4)cccc3n2CC(F)(F)F)c(OC)c1 (stereo partly drawn) [Compound 356A, 3-methoxy-N-methyl-4-{[3-(4-{[(1R,4R)-4-(3-methoxypiperidin-1-yl)cyclohexyl]amino}-1-(2,2,2-trifluoroethyl)-1H-indol-2-yl)prop-2-yn-1-yl]amino} benzamide]
COc1cc(S(N)(=O)=O)ccc1NCC#Cc1cc2c(N[C@H]3CC[C@H](N4CCCC(OC)C4)CC3)cccc2n1CC(F)(F)F (stereo partly drawn) [Compound 358A, 3-methoxy-4-{[3-(4-{[(1R,4R)-4-(3-methoxypiperidin-1-yl)cyclohexyl]amino}-1-(2,2,2-trifluoroethyl)-1H-indol-2-yl)prop-2-yn-1-yl]amino}benzene-1-sulfonamide]
COc1cc(S(C)(=O)=O)ccc1NCC#Cc1cc2c(N[C@H]3CC[C@H](N4CCS(=O)(=O)CC4)CC3)cccc2n1CC(F)(F)F [Compound 362A, 4-[(1R,4R)-4-[(2-{3-[(4-methanesulfonyl-2-methoxyphenyl)amino]prop-1-yn-1-yl}-1-(2,2,2-trifluoroethyl)-1H-indol-4-yl)amino]cyclohexyl]-1λ^6-thiomorpholine-1,1-dione]
COc1cc(S(C)(=O)=O)ccc1NCC#Cc1cc2c(N[C@H]3CC[C@H](N4CC[S+]([O-])CC4)CC3)cccc2n1CC(F)(F)F [Compound 364A, 4-[(1R,4R)-4-[(2-{3-[(4-methanesulfonyl-2-methoxyphenyl)amino]prop-1-yn-1-yl}-1-(2,2,2-trifluoroethyl)-1H-indol-4-yl)amino]cyclohexyl]-1λ^4-thiomorpholin-1-one]
CNC(=O)c1ccc(NCC#Cc2cc3c(N[C@H]4CC[C@H](N5CC[S+]([O-])CC5)CC4)cccc3n2CC(F)(F)F)c(OC)c1 [Compound 369A, 3-methoxy-N-methyl-4-{[3-(4-{[(1R,4R)-4-(1-oxo-1λ^4-thiomorpholin-4-yl)cyclohexyl]amino}-1-(2,2,2-trifluoroethyl)-1H-indol-2-yl)prop-2-yn-1-yl]amino}benzamide]
COc1cc(S(N)(=O)=O)ccc1NCC#Cc1cc2c(N[C@H]3CC[C@H](N4CC[S+]([O-])CC4)CC3)cccc2n1CC(F)(F)F [Compound 370A, 3-methoxy-4-{[3-(4-{[(1R,4R)-4-(1-oxo-1λ^4-thiomorpholin-4-yl)cyclohexyl]amino}-1-(2,2,2-trifluoro-ethyl)-1H-indol-2-yl)prop-2-yn-1-yl]amino} benzene-1-sulfonamide]
COc1cc(S(N)(=O)=O)ccc1NCC#Cc1cc2c(N[C@H]3CC[C@H](N4CCS(=O)(=O)CC4)CC3)cccc2n1CC(F)(F)F [Compound 372A, 3-methoxy-4-{[3-(4-{[(1R,4R)-4-(1,1-dioxo-1λ^6-thiomorpholin-4-yl)cyclohexyl]amino}-1-(2,2,2-trifluoroethyl)-1H-indol-2-yl)prop-2-yn-1-yl]amino}benzene-1-sulfonamide]
COc1cc(S(C)(=O)=O)ccc1NCC#Cc1cc2c(N[C@H]3CC[C@@H](N4CCC5(CC4)COC5)CC3)cccc2n1CC(F)(F)F [Compound 374A, 2-{3-[(4-methane-sulfonyl-2-methoxy-phenyl)amino]prop-1-yn-1-yl}-N-[(1S,4S)-4-{2-oxa-7-azaspiro[3.5]nonan-7-yl}cyclohexyl]-1-(2,2,2-trifluoroethyl)-1H-indol-4-amine]
CNC(=O)c1ccc(NCC#Cc2cc3c(N[C@H]4CC[C@H](N5CCC6(CC5)COC6)CC4)cccc3n2CC(F)(F)F)c(OC)c1 [Compound 375A, 3-methoxy-N-methyl-4-{[3-(4-{[(1R,4R)-4-{2-oxa-7-azaspiro[3.5]nonan-7-yl}cyclohexyl]amino}-1-(2,2,2-trifluoroethyl)-1H-indol-2-yl)prop-2-yn-1-yl]amino}benzamide]
CNC(=O)c1ccc(NCC#Cc2cc3c(N[C@H]4CC[C@@H](N5CCC6(CC5)COC6)CC4)cccc3n2CC(F)(F)F)c(OC)c1 [Compound 376A, 3-methoxy-N-methyl-4-{[3-(4-{[(1S,4S)-4-{2-oxa-7-azaspiro[3.5]nonan-7-yl}cyclohexyl]amino}-1-(2,2,2-trifluoroethyl)-1H-indol-2-yl)prop-2-yn-1-yl]amino}benzamide]
COc1cc(S(N)(=O)=O)ccc1NCC#Cc1cc2c(N[C@H]3CC[C@H](N4CCC5(CC4)COC5)CC3)cccc2n1CC(F)(F)F [Compound 377A, 3-methoxy-4-{[3-(4-{[(1R,4R)-4-{2-oxa-7-azaspiro[3.5]nonan-7-yl}cyclohexyl]amino}-1-(2,2,2-trifluoroethyl)-1H-indol-2-yl)prop-2-yn-1-yl]amino}benzene-1-sulfonamide]
N#CCOc1cc(S(N)(=O)=O)ccc1NCC#Cc1cc2c(N[C@H]3CC[C@H](N4CCC5(CC4)COC5)CC3)cccc2n1CC(F)(F)F [Compound 379A, 3-(cyanomethoxy)-4-{[3-(4-{[(1R,4R)-4-{2-oxa-7-azaspiro[3.5]nonan-7-yl}cyclohexyl]amino}-1-(2,2,2-trifluoroethyl)-1H-indol-2-yl)prop-2-yn-1-yl]amino}benzene-1-sulfonamide]
NS(=O)(=O)c1ccc(NCC#Cc2cc3c(N[C@H]4CC[C@H](N5CCC6(CC5)COC6)CC4)cccc3n2CC(F)(F)F)c(OCF)c1 [Compound 381A, 3-(fluoromethoxy)-4-{[3-(4-{[(1R,4R)-4-{2-oxa-7-azaspiro[3.5]nonan-7-yl}cyclohexyl]amino}-1-(2,2,2-trifluoroethyl)-1H-indol-2-yl)prop-2-yn-1-yl]amino}benzene-1-sulfonamide]
COc1cc(S(C)(=O)=O)ccc1NCC#Cc1cc2c(N[C@H]3CC[C@H](N4CCC5(CCO5)CC4)CC3)cccc2n1CC(F)(F)F [Compound 383A, 2-{3-[(4-methane-sulfonyl-2-methoxy-phenyl)amino]prop-1-yn-1-yl}-N-[(1R,4R)-4-{1-oxa-7-azaspiro[3.5]nonan-7-yl}cyclohexyl]-1-(2,2,2-trifluoroethyl)-1H-indol-4-amine]
CNC(=O)c1ccc(NCC#Cc2cc3c(N[C@H]4CC[C@H](N5CCC6(CCO6)CC5)CC4)cccc3n2CC(F)(F)F)c(OC)c1 [Compound 385A, 3-methoxy-N-methyl-4-{[3-(4-{[(1R,4R)-4-{1-oxa-7-azaspiro[3.5]nonan-7-yl}cyclohexyl]amino}-1-(2,2,2-trifluoroethyl)-1H-indol-2-yl)prop-2-yn-1-yl]amino}benzamide]
COc1cc(S(N)(=O)=O)ccc1NCC#Cc1cc2c(N[C@H]3CC[C@H](N4CCC5(CCO5)CC4)CC3)cccc2n1CC(F)(F)F [Compound 387A, 3-methoxy-4-{[3-(4-{[(1R,4R)-4-{1-oxa-7-azaspiro[3.5]nonan-7-yl}cyclohexyl]amino}-1-(2,2,2-trifluoroethyl)-1H-indol-2-yl)prop-2-yn-1-yl]amino}benzene-1-sulfonamide]
CS(=O)(=O)c1ccc(NCC#Cc2cc3c(N[C@H]4CC[C@H](N5CCC6(CC5)COC6)CC4)cccc3n2CC(F)(F)F)c(OCC#N)c1 [Compound 389A, 2-(5-methanesulfonyl-2-{[3-(4-{[(1R,4R)-4-{2-oxa-7-azaspiro[3.5]nonan-7-yl}cyclohexyl]amino}-1-(2,2,2-trifluoroethyl)-1H-indol-2-yl)prop-2-yn-1-yl]amino}phenoxy)acetonitrile]
CS(=O)(=O)c1ccc(NCC#Cc2cc3c(N[C@H]4CC[C@@H](N5CCC6(CC5)COC6)CC4)cccc3n2CC(F)(F)F)c(OCC#N)c1 [Compound 390A, 2-(5-methanesulfonyl-2-{[3-(4-{[(1S,4S)-4-{2-oxa-7-azaspiro[3.5]nonan-7-yl}cyclohexyl]amino}-1-(2,2,2-trifluoroethyl)-1H-indol-2-yl)prop-2-yn-1-yl]amino}phenoxy)acetonitrile]
